Test results taken from patent publication US20220211876A1, “LESION DETECTION METHOD” (MIE UNIVERSITY, priority 2019, published 2022).
“Also recorded” adds a separate entry of the source.

What was measured:
RAS = test: Staining of cells that overexpress a cancer-related gene product (RAS); format: cell-based
Source text: For the visualization of expression patterns of cancer-related genes in living cells, the inventors stained a cancer-related gene product to chromatic color using staining agents containing edible dyes and photographed. An edible dye is a natural or artificial dye which has been permitted to be administered to human (For example, a dye for food coloring, or a dye that can be taken as supplements). Specifically, a staining agent containing curcumins (C21H20O6) can be used to selectively stain a STAT3-based cancer-related gene product. In addition, a staining agent containing Red #3 (erythrosine) can be used to selectively stain the expression pattern of ras-based cancer-related gene. More specifically, as a staining agent containing curcumins, a solution containing 1% by weight of curcumin was prepared. As a staining agent containing Red #3, a solution containing 1% by weight of […] was prepared. As a staining agent containing curcumins, a curcumin solution 5˜100-fold diluted from its stock solution (for example, a liquid containing 5% curcumin solution, 45% glycerol, and 50% ethanol) with physiological saline can be used. […] Accordingly, the nucleus surrounded by the cytoplasm is clearly visualized, making it clearer to be analyzed.

[1] = Fluorescent color by laser irradiation; format: physicochemical
Source text: Regarding staining an organ tissue, the object in the organ to be visualized differs depending on the staining agent used. For example, curcumin and Red #3 are suitable for staining epithelial and glandular cells, as well as cancerous cells derived from them. On the other hand, Red #106 is suitable for staining connective tissue and capillaries. By laser irradiation, curcumin gives a green fluorescent color, while Red #3 and Red #106 give a red fluorescent color. Therefore, double staining with curcumin and Red #106 makes it easier to identify structure of cells in tissue by superimposing stained images. Accordingly, micro cancer tissue with diameter of about 1 mm and invasive cancer cell groups can be detected.
(§1) A multiphoton laser microscope of FVMPE-RS (Olympus) was used with the irradiation wavelength of 800 nm, wherein the laser irradiation was performed at 5.8˜48.2% of its full power output. A confocal laser microscope of FV1000 (Olympus) was used with the irradiation wavelength of 488 nm and 594 nm, wherein the laser irradiation at 488 nm was performed at 15˜29.4% of its full power output, and the laser irradiation at 594 nm was performed at 13˜13.5% of its full power output.

[2] = test system: large intestine of a mouse (normal mucosal tissue); test: Vital staining of normal mouse large intestine, imaging with multiphoton or confocal laser microscope; format: in vivo; details: for structures stained in double staining: curcumin and Red #106 from lumen side, FIG. 4
Description: (§2) 100 mg of curcumin (Tokyo Kasei, cat. #C2302, purity 97.0%) was suspended in 5 mL of ethanol, and further diluted 10-fold with ethanol. It was mixed with the same amount of glycerin, and further diluted 10-fold with glycerin. The mixture was mixed with the same amount of purified water to obtain a staining solution of curcumin. Regarding Red #106, its staining solution is obtained by dissolving the powder in saline to achieve a concentration of 1 mg/mL.
(§3) C57BL/6N mice purchased from Japan SLC, Inc. were used in the tests. All tests were performed on male, 8-week-old mice weighing 20˜25 grams.
as §1

[3] = test system: Auerbach's plexus in large intestine; test: Curcumin staining of freshly resected colon of a patient with Hirschsprung-like disease, multiphoton laser microscope; design: species or system human
Description: In an embodiment of the present invention, curcumin was administered to a freshly resected colon from a patient with Hirschsprung-like disease, and then a multiphoton laser microscope was used to visualize Auerbach's plexus. […] (FIG. 39). Therefore, intraoperative rapid diagnosis by a multiphoton laser microscope of freshly resected large intestine of a patient with Hirschsprung-like disease can be performed and appropriate surgical resection sites can be confirmed.

[4] = test system: large intestine (cancer tumor site) of a colon cancer mouse; test: Vital staining of the cancer tumor site of a colon cancer mouse, laser microscope imaging; format: in vivo
Description: as §2, §3
Model mice with colon cancer were prepared by intraperitoneally administering 10 mg/kg of azoxymethane (AOM) dissolved in saline 4 times at weekly intervals to the C57BL/6N mice.
as §1

[5] = test system: nerve fibers (myelin sheath); test: Vital staining of nerve fibers, multiphoton laser microscope; format: in vivo, mouse; details: intraperitoneal administration, FIG. 25
Source text: FIG. 25 is a diagram showing, at high magnification, examples of visualization with a laser multiphoton microscope of olfactory nerve fibers after vital staining by intraperitoneal administration of curcumin to a mouse.

taste bud = test: Vital staining by coating onto tongue mucosa, laser microscope; format: in vivo, mouse; details: coating on tongue mucosa
Source text: FIG. 20 is a diagram showing, at high magnification, an example of visualization with a multiphoton laser microscope of a taste bud, which is a taste sensory device, after vital staining by coating curcumin onto tongue mucosa of a mouse. FIG. 20 to FIG. 22 are diagrams in which a taste bud, a taste sensory device, is visualized by a laser microscope after vital staining by coating curcumin on mouse tongue mucosa. FIG. 20 and FIG. 21 further show hematoxylin-eosin staining images of taste buds. The nuclei of sensory neuronal cells are not stained with curcumin, so that they are recognized as black negative images. By coating curcumin on oral mucosa, the neuronal cells of a taste bud, which is a taste sensory device, can be visualized. Accordingly, taste disorders can be examined in otolaryngologic field.

STAT3 = biological target: T1, STAT3 (Homo sapiens, UniProt P40763); test: Staining of cells that overexpress a cancer-related gene product (STAT3); format: cell-based
T1 construct: endogenous in cells
T1 sequence (P40763 whole entry, species assumed): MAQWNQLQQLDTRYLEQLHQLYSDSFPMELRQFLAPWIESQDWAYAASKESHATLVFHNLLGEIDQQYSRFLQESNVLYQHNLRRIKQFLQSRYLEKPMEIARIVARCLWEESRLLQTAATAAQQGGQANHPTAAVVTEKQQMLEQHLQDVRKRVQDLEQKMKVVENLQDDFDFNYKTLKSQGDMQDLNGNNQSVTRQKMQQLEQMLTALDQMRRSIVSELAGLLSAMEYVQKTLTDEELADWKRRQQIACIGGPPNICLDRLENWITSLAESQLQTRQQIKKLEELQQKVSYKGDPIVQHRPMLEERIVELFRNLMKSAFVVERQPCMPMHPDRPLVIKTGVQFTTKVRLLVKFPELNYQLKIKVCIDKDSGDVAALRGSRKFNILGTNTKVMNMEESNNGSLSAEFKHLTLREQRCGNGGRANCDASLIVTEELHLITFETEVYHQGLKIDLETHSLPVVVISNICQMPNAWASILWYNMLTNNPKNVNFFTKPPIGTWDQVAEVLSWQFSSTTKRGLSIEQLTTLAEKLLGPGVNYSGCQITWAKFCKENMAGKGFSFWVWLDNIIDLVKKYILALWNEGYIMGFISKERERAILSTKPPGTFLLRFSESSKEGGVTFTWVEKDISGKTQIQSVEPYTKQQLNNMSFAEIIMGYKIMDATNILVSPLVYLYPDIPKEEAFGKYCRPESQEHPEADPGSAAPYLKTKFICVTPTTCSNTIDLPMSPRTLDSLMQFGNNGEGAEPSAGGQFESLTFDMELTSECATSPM
Source text: For the visualization of expression patterns of cancer-related genes in living cells, the inventors stained a cancer-related gene product to chromatic color using staining agents containing edible dyes and photographed. An edible dye is a natural or artificial dye which has been permitted to be administered to human (For example, a dye for food coloring, or a dye that can be taken as supplements).
Specifically, a staining agent containing curcumins (C21H20O6) can be used to selectively stain a STAT3-based cancer-related gene product. In addition, a staining agent containing Red #3 (erythrosine) can be used to selectively stain the expression pattern of ras-based cancer-related gene.
More specifically, as a staining agent containing curcumins, a solution containing 1% by weight of curcumin was prepared. As a staining agent containing Red #3, a solution containing 1% by weight of phloxine was prepared. […]
When a staining agent containing curcumins is used, the expression of a STAT3-based cancer-related gene product in living cells can be visualized by staining. […] Accordingly, the nucleus surrounded by the cytoplasm is clearly visualized, making it clearer to be analyzed.

[6] = test system: optic nerve and optic ganglion cells of retina; test: Vital staining of retina by intraperitoneal administration, laser microscope; format: in vivo, mouse; details: curcumin vital staining
Source text: FIG. 38 is a diagram of visualization of optic nerves and the optic ganglion cells of retina in vivo after vital staining by intraperitoneal administration of sulforhodamine 101 and curcumin to a mouse. (A) is a diagram of visualization of blood vessels fluorescently labeled with sulforhodamine 101 and a bundle of optic nerve fluorescence-labeled with curcumin. […] In an embodiment of the present invention, the nerve cell layer of retina can be visualized by vital staining with curcumin (FIG. 37). According to FIG. 37, it can be seen that in the layer structure of retina, the cell layer of optic ganglion, inner plexiform layer, bipolar cell layer, outer plexiform layer, and outer nuclear layer can be identified. It can be seen that the blood vessel travel and the optic nerve bundle in retina can be visualized at the same time by double staining with blood vessel staining dye (sulforhodamine 101) and curcumin (FIG. 38A). […] Accordingly, the present invention is very useful for detecting retinal diseases.

[7] = test system: olfactory receptor neurons; test: Vital staining by coating onto nasal mucosa, laser microscope; format: in vivo, mouse; details: coating on nasal mucosa
Source text: FIG. 26 is a diagram showing, at high magnification, examples of visualization with a multiphoton laser microscope of olfactory receptor neurons, which are odor sensory cells, after vital staining by coating curcumin onto nasal mucosa of a mouse. […] Since a nucleus is not stained, it is viewed as a black negative image. By coating curcumin on nasal mucosa, olfactory receptor neuronal cells, which are odor sensing cells, can be visualized. Accordingly, olfactory disorders can be examined.

[8] = normal large intestine, five-layer structure
[9] = stained and photographed from luminal side
[10] = isolated large intestine, stained from serosa side
[11] = normal mucosal tissue of large intestine, FIG. 3

O=C1OC2(c3ccccc31)c1cc(I)c(O)c(I)c1Oc1c2cc(I)c(O)c1I [Red #3, erythrosine]
staining of cells that overexpress RAS (RAS): can stain | fluorescent color [1]: red

CCN(CC)c1ccc2c(-c3ccc(S(=O)(=O)[O-])cc3S(=O)(=O)[O-])c3ccc(=[N+](CC)CC)cc-3oc2c1.[Na+] [Red #106]
structures stained in double staining ([2]; isolated large intestine): connective tissue, capillaries and cell membranes of epithelial and glandular cells | staining of the network of capillaries surrounding the glandular structures of epithelial and glandular layers (1) [2, 8]: strongly positively | staining of the smooth muscle in muscle layer (4) [2, 8]: slightly positively; also recorded: strongly stained; also recorded: strongly positively | staining of the smooth muscle in muscularis mucosae (2) [2, 8]: slightly positively; also recorded: moderately positively | staining of the wall of a thick blood vessel inside muscle layer [2, 8]: strongly positively; also recorded: strongly stained | fluorescent color [1]: red

COc1cc(/C=C/C(=O)CC(=O)/C=C/c2ccc(O)c(OC)c2)ccc1O [curcumin]
identification of the normal part and malformation part of Auerbach's plexus [3]: clearly identified | staining of cancer cells relative to surrounding or normal tissue ([4]; cancer cells versus surrounding tissue / normal cells): darker than surrounding tissue | staining of cytoplasm of cancer cells [4, 9]: severely positively | staining of nuclei of cancer cells [4, 9]: negatively | staining of myelin sheath [5]: can stain myelin sheath | staining of nuclei of sensory neuronal cells of taste bud (taste bud): not stained | staining of cells that overexpress STAT3 (STAT3): can stain cells that overexpress STAT3 | structures stained in double staining ([2]; isolated large intestine): cytoplasm of epithelial and glandular cells | staining of nerve fibers of Auerbach's plexus [2, 10]: moderately | staining of perikaryon of Auerbach's plexus [2, 10]: strongly | staining of Auerbach's plexus inside muscle layer [2, 8]: strongly positively | staining of epithelial and glandular cells in epithelial and glandular layers (1) [2, 8]: strongly positively | staining of the smooth muscle in muscle layer (4) [2, 8]: slightly positively | staining of the smooth muscle in muscularis mucosae (2) [2, 8]: moderately positively; also recorded: severely positively | staining of the cytoplasm of epithelial cells and gland cells [2, 11]: stained | staining of the nucleus of epithelial cells and gland cells [2, 11]: not stained | staining of the nucleus in perikaryon of Meissner's plexus ([2]; stained from serosa side): does not stain the nucleus | staining of the nucleus in perikaryon of Auerbach's plexus ([2]; stained from serosa side, high magnification): does not stain the nucleus | signal of the cytoplasm of optic nerve and small/large ganglion cells [6]: positive signal | signal of the nucleus of optic nerve and small/large ganglion cells [6]: negative signal | staining of cytoplasm of olfactory receptor neurons and cilia having odor receptors [7]: stained positively | staining of nucleus of olfactory receptor neurons [7]: not stained | fluorescent color [1]: green
